“And” between values parts separate entries of the source, which are not always exact repeats. Equal values may be shown once.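 Exposure lasted 48 hours, with cells grown in 96-well plates and compounds tested at five concentrations. At the GI50, growth is halved. At the TGI there is no net growth.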
Key:
Assay in all cases: NCI tumour cell line growth inhibition, 48 h
XF 498 CNS = test system: XF 498 CNS
M19-MEL melanoma = test system: M19-MEL melanoma
LXFL 529 NSCLC = test system: LXFL 529 NSCLC
HOP-18 NSCLC = test system: HOP-18 NSCLC
NCI/ADR-RES ovarian = test system: NCI/ADR-RES ovarian
P388/ADR leukemia = test system: P388/ADR leukemia
P388 leukemia = test system: P388 leukemia
MDA-N = test system: MDA-N
BT-549 breast = test system: BT-549 breast
DU-145 prostate = test system: DU-145 prostate
T-47D breast = test system: T-47D breast
SN12K1 renal = test system: SN12K1 renal

Row | Structure (SMILES) | TGI (XF 498 CNS) [µM] | TGI (M19-MEL melanoma) [µM] | TGI (LXFL 529 NSCLC) [µM] | TGI (HOP-18 NSCLC) [µM] | other results
1 | O=C(Nc1nc2ncn(CC(COc3ccccc3)OC(=O)c3ccccc3)c2c(=O)[nH]1)c1ccccc1 (centres undefined) | > 100 | > 100 | – | – | –
2 | c1ccc(CN(Cn2cccn2)Cn2cccn2)nc1 | > 100 | > 100 | > 100 | – | –
3 | O=C(NO)C12C3C4C1C1C2C3C41C(=O)NO (centres undefined) | – | > 100 | > 100 | > 100 | –
4 | O=c1cnn2c(n1)sc1ccc3ccccc3c12 | > 100 | > 100 | > 100 | > 100 | –
5 | Cc1ccccc1CN1CC=c2ccccc2=N1 | > 100 | > 100 | – | > 100 | –
6 | Cc1cc(Cl)ccc1N=C1NC(=O)C(CC(=O)Nc2ccc(Cl)cc2Cl)S1 (centres undefined) | > 100 | > 100 | > 100 | – | –
7 | CC(C)(C)c1ccc(C(O)c2ccc(C(C)(C)C)cc2)cc1 | 28.4 | 26.9 | 29 | 31.2 | –
8 | CC1C=CC(=O)C(n2cc(F)c(=O)[nH]c2=O)O1 (centres undefined) | 28.7 | 36.3 | – | 22.6 | –
9 | NC1=N/C(=C2/CCNC(=O)c3[nH]c(Br)cc32)C(=O)N1 | > 100 | > 100 | – | > 100 | GI50 (NCI/ADR-RES ovarian): 11.9 µM and > 43.3 µM; TGI (NCI/ADR-RES ovarian): > 100 µM; TGI (P388/ADR leukemia): > 100 µM; TGI (P388 leukemia): 86.1 µM; TGI (MDA-N): > 43.3 µM; TGI (BT-549 breast): 53.3 µM; TGI (DU-145 prostate): > 100 µM; TGI (T-47D breast): 51.8 µM; TGI (SN12K1 renal): > 100 µM
10 | Nc1ccn(C2CC(CO)C(O)C2O)c(=O)n1 (centres undefined) | – | > 57.7 | > 57.7 | > 57.7 | –
11 | NCCNC(=S)S | – | – | – | – | TGI (NCI/ADR-RES ovarian): > 100 µM; TGI (MDA-N): > 100 µM; TGI (BT-549 breast): > 100 µM; TGI (DU-145 prostate): > 100 µM; TGI (T-47D breast): > 100 µM
12 | CC1OC(OCC2COC(O)(Oc3c(-c4ccc(O)c(O)c4)oc4cc(O)cc(O)c4c3=O)C(O)C2O)C(O)C(O)C1O (centres undefined) | > 100 | > 100 | > 100 | > 100 | –
13 | O=C(Nc1c(O)[nH]c(=S)[nH]c1=O)c1ccc2ccccc2n1 | – | > 100 | > 100 | > 100 | –
14 | C1=Cc2nc1c(-c1ccncc1)c1ccc([n-]1)c(-c1ccncc1)c1nc(c(-c3ccncc3)c3ccc([n-]3)c2-c2ccncc2)C=C1.[Zn+2] | > 100 | > 100 | > 100 | – | –
15 | O=[N+]([O-])c1nccn1COCCF | > 100 | > 100 | > 100 | – | –
16 | N#Cc1cc([N+](=O)[O-])ccc1NC(=O)C(=O)C(C(=O)/C=C/c1ccccc1)C1OC(=O)c2ccccc21 (centres undefined) | > 100 | > 100 | > 100 | > 100 | –
17 | CCN(CC)C(=O)COc1ccc(Br)cc1Br | – | > 100 | > 100 | > 100 | –
18 | CCOC(=O)/C(=C/c1ccc(C#N)cc1)N(CC)CC | > 100 | > 100 | > 100 | > 100 | –
19 | CO[C@@H]1[C@H](OC(=O)NC(=O)CCl)CC[C@]2(CO2)[C@H]1[C@@]1(C)O[C@@H]1CC=C(C)C | – | 24.2 | 20.9 | – | GI50 (NCI/ADR-RES ovarian): 27.9 µM; TGI (NCI/ADR-RES ovarian): 62.4 µM and 111 µM; TGI (MDA-N): 27.3 µM; GI50 (BT-549 breast): 16.8 µM; TGI (BT-549 breast): 37.6 µM and 59.1 µM; GI50 (DU-145 prostate): 22.2 µM; TGI (DU-145 prostate): 29.3 µM and 46.3 µM; GI50 (T-47D breast): 4.03 µM; TGI (T-47D breast): 41.9 µM and 68.9 µM; GI50 (LXFL 529 NSCLC): 6.1 µM; GI50 (M19-MEL melanoma): 1.17 µM
20 | Cc1ccccc1C(C#N)C(=O)C(=O)Nc1cccc(Cl)c1 (centres undefined) | > 100 | 95.5 | – | – | –
